Reference: US20250222117A1, “COMPOUND COMPRISING RALTITREXED OR 5-MTHF LINKED TO A THERAPEUTIC AGENT, COMPOSITION, AND METHOD OF USE” (PURDUE RESEARCH FOUNDATION, priority 2022, published 2025)

System: murine CD45+CD4+CD25+ Tregs
Assay: Treg suppression assay: pre-treated Tregs co-cultured with CFSE-labeled effector T cells, flow cytometry
Format: cell-based, mouse
Conditions: Tregs pre-treated 10 nM for 3 hours, 1:4 ratio, 4 days
Method: Murine CD45+CD4+CD25+ Tregs and CD45+CD4+CD25− effector T cells were isolated from healthy mice using a StemCell mouse Treg Isolation Kit (StemCell Technologies, Cambridge, MA). The cells were used in two different assays.
First, Tregs that were either pre-treated with 10 nM TLR7-1A agonist for 3 hours or left untreated were co-cultured with CFSE-labeled effector T cells at 1:4 ratio, with or without CD3/CD28 activation beads. Incubation proceeded for 4 days before flow cytometry analysis.

CCCCc1nc2c(N)nc3ccccc3c2n1CC(C)(C)CO [TLR7-1A agonist, 3-(4-amino-2-butyl-1H-imidazo[4,5-c]quinolin-1-yl)-2,2-dimethylpropan-1-ol]
effect on Treg suppression of CD4+ T cell proliferation: reversed the suppressive activity
